The values that follow come from patent EP0518769B1, “Ethanolaminebenzoate derivative, process for their preparation and pharmaceutical compositions containing them” (ADIR ET COMPAGNIE, priority 1991, dated 1992).

For test [1], the system named is LDL. Nature of the test: LDL oxidation in vitro by monocytes. The format is cell-based. Particulars: à 10⁻⁴ M. An excerpt:
(§1) Une étude comparative entre le produit de l'exemple 1 et les substances de référence (Benfluorex, Diméthylbiguanide) sur l'oxydation des LDL in vitro a été réalisée.

The test system of test [2] is LDL. Nature of the test: LDL oxidation in vitro by copper. Particulars: à 10⁻⁴ M. The format is biochemical.
Excerpt: as §1

The test system of test [3] is Rats SDCD mâles 52 semaines. Briefly: Acute treatment by portal perfusion in the conscious rat, with IVGTT. In kind it is in vivo. Particulars: 0,25 µg/kg/min×60 min intraportal perfusion; vs Contrôle 57,4 ± 13,7 µU/ml. An excerpt: La technique de perfusion portale chez le rat vigile permet d'étudier l'effet de substances pharmacologiques sur les modifications de la tolérance au glucose adminstré par voie intraveineuse.
L'injection d'agents directement dans la circulation portale permet d'éviter les effets du transit gastrique, d'absorption et de libération d'hormone par la paroi intestinale et ainsi d'explorer : • soit un effet direct sur le tissu hépatique, • soit l'existence d'un relai foie-système nerveux central-tissu périphérique (foie, muscle ou cible endocrine).
Dans cette expérimentation, on a utilisé des rats mâles adultes SPRAGUE DAWLEY par lots de 5 à 12 rats.
Les rats utilisés, agés de 52 semaines, présentent • une diminution de la tolérance au glucose, • une augmentation de l'insulinémie basale, et • une augmentation des lipides plasmatiques.
La stabulation (de 9 à 52 semaines) de ces rats a été réalisée dans une pièce à température régulée de 21 à 22 °C et soumise à un cycle fixe de lumière (de 7 h 30 à 19 h 30) et d'obscurité (de 19 h 30 à 7 h 30). Leur alimentation a consisté en un régime d'entretien (UAR A 03); eau et nourriture ont été fournies "ad libitum", à l'exception du jeûne nocturne précédant les tests où la nourriture était retirée. […]

Test [4] concerns Rats SDCD mâles de 52 semaines. Nature of the test: Chronic per os treatment (14 days, twice daily) in the male SDCD rat aged 52 weeks. In kind it is in vivo. To be noted: 0,5 mg/kg×2 per os, vs Contrôle 1,1 ± 0,14 g/l. An excerpt: Les essais sont réalisés sur des rats qui présentent des anomalies pondérales associées à un hyperinsulisme et une hyperglycéridémie.
Il est recherché : • d'une part l'effet d'un traitement prolongé du produit de l'exemple 1 et de substances de référence sur ces anomalies, et • d'autre part, la consommation du glucose par le tissu adipeux est mesuré à l'état basal et en présence d'insuline (10⁻⁹ M).
On utilise des rats identiques à ceux de l'étude du traitement aigu, (cf. ci-dessus le paragraphe A- 2.1), à savoir des rats SDCD mâles agés de 52 semaines.
9 jours avant le début de l'expérimentation (J₋₉), sont constitués des lots de rats par randomisation stratifiée sur le poids.
5 jours avant le début de l'expérimentation (J₋₅), les rats sont conditionnés par administration d'une solution de gomme.
Le premier jour de l'expérimentation (J₁), les produits à tester sont administrés à différentes doses aux rats 2 fois par jour. Plus précisémment, les produits sont administrés en suspension dans la gomme entre 9 et 10 heures et 16-17 heures pendant 14 jours. Une pesée quotidienne des animaux traités est effectuée.
Le 15ème jour, les rats (à jeun depuis 18 heures) sont sacrifiés par décapitation. Le sang est recueilli directement dans une cupule. Un aliquote (50 µl) est transféré dans 500 µl d'acétate d'uranyl pour dosage de la glycémie. […]

Test [5] deals with rats agés de 12 semaines, insulinorésistance induite par l'amyline. Nature of the test: Insulin resistance induced by intraportal amylin perfusion, with IVGTT. In kind it is in vivo, rat. Particulars: Perfusion amyline + 0,75µg/kg/min pendant 60 mn. An excerpt: A J₇ avant le début de l'expérimentation, les rats sont anesthésiés à la kétamine (IMALGENE 1000 - Rhône MERIEUX), et un cathéter en silastic (602-135, médical grade, DOW CORNING MIDLAND) est implanté dans la veine porte hépatique [cf. Strubbe J.H., Wolsink J.G., Schutte A.M., Balkan B., and Prins A.J.A. : Hepatic-portal and cardiac infusion of CKK-8 and glucagon induce different effects on feeding. Physiology and Behavior 46,643-646 (1989)] pour la perfusion du soluté physiologique (jour contrôle) puis du produit à tester. Ils sont alors placés individuellement dans des cages en plexiglas. • Après récupération, soit environ 10 jours plus tard, un second cathéter en silastic (602-155, médical grad, DOW CORNING MIDLAND) est introduit jusque dans l'oreillette droite par la veine jugulaire droite [cf. Steffens A.B : A Method for frequent sampling of blood and continuous infusion of fluids in the rat without disturbing the animal. Physiology and behavior 4, 833-836 (1969)]. Lors des test, les différents prélèvements sanguins et l'injection intra-cardiaque du bolus glucosé seront effectués à l'aide de ce cathéter. Pendant les deux interventions chirurgicales, les cathéters sont glissés sous la peau et extériorisés au-dessus de la tête au moyen d'une aiguille limée recourbée et bouchée par un capuchon de polyéthylène (PE) fermé à la bougie. • 0,4 ml d'une solution d'héparine à 500 U/ml (ROUSSEL UCLAF) suivie de 0,1 ml de PVP (Solution de Polyvinylpyrrolidone à 30 % - PM 25000 - MERCK) sont introduits dans les cathéters avant la fermeture par le capuchon de polyéthylène. La viscosité du PVP permet d'éviter un reflux du sang dans le cathéter. • La veille de chaque expérience, les rats sont soumis à un jeûne nocturne de 18 heures. Le jour de l'expérience, ces rats sont pesés et le bon fonctionnement des cathéters vérifié. • Afin d'éliminer le stress du branchement des cathéters sur les aiguilles extériorisées sur le dessus de la tête, 20 minutes de repos sont nécessaires avant de commencer l'expérience. • Les perfusions intraportales, réalisées à l'aide d'un cathéter en polyéthylène N° 3 durent 60 minutes; elles ont un débit constant de 2 ml/heure soit envirion 0,033 ml/minute, assuré par un perfuseur BRAUN. […]

The structures appear in SMILES notation.

Take `CC(Cc1cccc(C(F)(F)F)c1)NCCOC(=O)c1ccccc1` (stereo not drawn) [Benfluorex, 1-(3-trifluorométhylphényl)-2-(β-benzoyloxyéthyl)aminopropane]: in the test on LDL [1], the “Oxydation des LDL in vitro par les monocytes” value is recorded as “Inactif à 10⁻⁴ M”. The “Oxydation des LDL in vitro par le cuivre” value in the test with LDL [2] is on record as “Inactif à 10⁻⁴ M”.

Consider `COC(CNCCOC(=O)c1ccc(CCNC(=O)CC2c3ccccc3-c3ccccc32)cc1)c1cccc(C(F)(F)F)c1` (single isomer, unassigned) [Exemple 1, Isomère lévogyre du chlorhydratede para-[2-(α-fluorén-9-ylacétylamino) éthyl] benzoatede 2-[(β-méthoxy β-métatrifluorométhylphényl) éthylamino] éthyle], for which the “Insulinémie au pic Variation %” value in test [3] is 0%. The molecule also had a Cholestérol variation % in test [4] of 0%. Moreover, the “Tolérance au glucose K.10^-2” value in test [5] (Controle 3,54±0,24, amyline alone 1,71±0,27) was 3,79±0,38. The Insulinémie basale in test [5] (Controle 5,93±0,48, amyline alone 6,87±0,77) is reported as 8,26±1,15 µU/ml. Also, the “Insulinémie 24 min après glucose” value in test [5] (Controle 8,86±0,77, amyline alone 15,28±1,90) is given as 15±1,86 µU/ml. Further, the Insulinémie au pic in test [5] (Controle 24,80±1,86, amyline alone 23,54±1,7) was 23,60±2,17 µU/ml.
